# Measurements as given in patent publication US20150197492A1, “NOVEL INDENO[1,2-c]QUINOLIN-11-ONE DERIVATIVES, PREPARATION METHOD AND APPLICATION THEREOF” (National Defense Medical Center, priority 2014, published 2015).
# Experiments:
# Type in all cases: cell-based
# [1] = test system: RPMI-8226; test: cells
# [2] = test system: NCI-H522; test: cells
# [3] = test system: UACC-257; test: cells
# [4] = test system: A498; test: cells
# [5] = test system: UACC-62; test: cells
# [6] = test system: NCI-H23; test: cells
# [7] = test system: TK-10; test: cells
# [8] = test system: NCI-H322M; test: cells
# [9] = test system: BT-549; test: cells
# [10] = test system: MDA-MB-435; test: cells
# [11] = test system: HCC-2998; test: cells
# [12] = test system: SR; test: cells
# [13] = test system: LOX IMVI; test: cells; conditions: Melanoma LOX IMV1
# [14] = test system: K-562; test: cells
# [15] = test system: NCI-H226; test: cells
# [16] = test system: SNB-19; test: cells
# [17] = test system: COLO 205; test: cells
# [18] = test system: HL-60 (TB); test: cells; conditions: HL-60 (TB) (Leukemia), 10 μM, 48 hours
# [19] = test system: 786-0; test: cells
# [20] = test system: M14; test: cells
# [21] = test system: SF-295; test: cells; conditions: CNS Cancer SF-295
# [22] = test system: SF-268; test: cells
# [23] = test system: SW-620; test: cells
# [24] = test system: 55 to 60 cancer cell lines; conditions: 10 μM
# [25] = test system: CAKI-1; test: cells
# [26] = test system: SF-539; test: cells
# [27] = test system: ACHN; test: cells
# [28] = test system: A549/ATCC; test: cells
# [29] = test system: CCRF-CEM; test: cells
# [30] = test system: PC-3; test: cells
# [31] = test system: DU-145; test: cells
# [32] = test system: U251; test: cells; conditions: CNS Cancer U251
# [33] = test system: SK-MEL-5; test: cells
# [34] = test system: IGROV1; test: cells
# [35] = Homo sapiens, Non-Small Cell Lung Cancer NCI-H23
# [36] = Homo sapiens, K562, Leukemia K-562
# [37] = Homo sapiens, CNS Cancer SF-268
# [38] = Homo sapiens, Colon Cancer SW-620
# [39] = Homo sapiens, CNS Cancer SF-539
# [40] = Homo sapiens, Non-Small Cell Lung Cancer A549/ATCC
smiles,measurement,setting,value
"CCN(CC)CCNc1nc2ccccc2c2c1-c1ccc(Cl)cc1C2=O [SJ-3, 6-(2-(Diethylamino)ethylamino)-9-chloro-11H-indeno[1,2-c]quinolin-11-one]",GI50,"[1]; Homo sapiens, Leukemia RPMI-8226",20.2 µM
same,CC50,"[1]; Homo sapiens, Leukemia RPMI-8226, read-out: LC50 (the source's name)",9.73 µM
same,TGI,[1]; Leukemia RPMI-8226,4.31 µM
same,growth percentage,"[1]; RPMI-8226 (Leukemia), 10 μM, 48 hours",81.94%
same,GI50,"[2]; Homo sapiens, Non-Small Cell Lung Cancer NCI-H522",27.6 µM
same,CC50,"[2]; Homo sapiens, Non-Small Cell Lung Cancer NCI-H522, read-out: LC50 (the source's name)",7.23 µM
same,growth percentage,"[2]; NCI-H522 (Non-Small Cell Lung Cancer), 10 μM, 48 hours",77.39%
same,TGI,[2]; Non-Small Cell Lung Cancer NCI-H522,3.80 µM
same,GI50,"[3]; Homo sapiens, Melanoma UACC-257",21.2 µM
same,CC50,"[3]; Homo sapiens, Melanoma UACC-257, read-out: LC50 (the source's name)",6.37 µM
same,TGI,[3]; Melanoma UACC-257,3.39 µM
same,growth percentage,"[3]; UACC-257 (Melanoma), 10 μM, 48 hours",92.18%
same,growth percentage,"[4]; A498 (Renal Cancer), 10 μM, 48 hours",88.98%
same,GI50,"[4]; Homo sapiens, Renal Cancer A498",8.76 µM
same,CC50,"[4]; Homo sapiens, Renal Cancer A498, read-out: LC50 (the source's name)",50.8 µM
same,TGI,[4]; Renal Cancer A498,1.78 µM
same,GI50,"[5]; Homo sapiens, Melanoma UACC-62",14.8 µM
same,CC50,"[5]; Homo sapiens, Melanoma UACC-62, read-out: LC50 (the source's name)",6.68 µM
same,TGI,[5]; Melanoma UACC-62,3.31 µM
same,growth percentage,"[5]; UACC-62 (Melanoma), 10 μM, 48 hours",99.56%
same,GI50,[6]; [35],2.63 µM
same,LC50,[6]; [35],8.35 µM
same,growth percentage,"[6]; NCI-H23 (Non-Small Cell Lung Cancer), 10 μM, 48 hours",80.63%
same,TGI,[6]; Non-Small Cell Lung Cancer NCI-H23,4.00 µM
same,GI50,"[7]; Homo sapiens, Renal Cancer TK-10",24.6 µM
same,CC50,"[7]; Homo sapiens, Renal Cancer TK-10, read-out: LC50 (the source's name)",6.38 µM
same,TGI,[7]; Renal Cancer TK-10,3.70 µM
same,growth percentage,"[7]; TK-10 (Renal Cancer), 10 μM, 48 hours",95.55%
same,GI50,"[8]; Homo sapiens, Non-Small Cell Lung Cancer NCI-H322M",34.5 µM
same,CC50,"[8]; Homo sapiens, Non-Small Cell Lung Cancer NCI-H322M, read-out: LC50 (the source's name)",36.2 µM
same,growth percentage,"[8]; NCI-H322M (Non-Small Cell Lung Cancer), 10 μM, 48 hours",69.83%
same,TGI,[8]; Non-Small Cell Lung Cancer NCI-H322M,13.10 µM
same,growth percentage,"[9]; BT-549 (Breast Cancer), 10 μM, 48 hours",87.48%
same,TGI,[9]; Breast Cancer BT-549,9.50 µM
same,GI50,"[9]; Homo sapiens, Breast Cancer BT-549",32.5 µM
same,CC50,"[9]; Homo sapiens, Breast Cancer BT-549, read-out: LC50 (the source's name)",45.5 µM
same,GI50,"[10]; Homo sapiens, Melanoma MDA-MB-435",20.2 µM
same,CC50,"[10]; Homo sapiens, Melanoma MDA-MB-435, read-out: LC50 (the source's name)",7.62 µM
same,growth percentage,"[10]; MDA-MB-435 (Melanoma), 10 μM, 48 hours",92.72%
same,TGI,[10]; Melanoma MDA-MB-435,3.86 µM
same,TGI,[11]; Colon Cancer HCC-2998,4.08 µM
same,growth percentage,"[11]; HCC-2998 (Colon Cancer), 10 μM, 48 hours",88.65%
same,GI50,"[11]; Homo sapiens, Colon Cancer HCC-2998",> 100 µM
same,CC50,"[11]; Homo sapiens, Colon Cancer HCC-2998, read-out: LC50 (the source's name)",7.94 µM
same,GI50,"[12]; Homo sapiens, Leukemia SR",5.05 µM
same,LC50 (50% lethal concentration),"[12]; Homo sapiens, Leukemia SR",11.6 µM
same,TGI,[12]; Leukemia SR,4.06 µM
same,growth percentage,"[12]; SR (Leukemia), 10 μM, 48 hours",46.92%
same,GI50,"[13]; Homo sapiens, LOX IMVI",6.04 µM
same,CC50,"[13]; Homo sapiens, LOX IMVI, read-out: LC50 (the source's name)",6.02 µM
same,TGI,[13],3.04 µM
same,GI50,[14]; [36],8.75 µM
same,"LC50 (lethal concentration, 50% cell kill)",[14]; [36],7.46 µM
same,growth percentage,"[14]; K-562 (Leukemia), 10 μM, 48 hours",45.29%
same,TGI,[14]; Leukemia K-562,3.61 µM
same,GI50,"[15]; Homo sapiens, Non-Small Cell Lung Cancer NCI-H226",1.88 µM
same,growth percentage,"[15]; NCI-H226 (Non-Small Cell Lung Cancer), 10 μM, 48 hours",80.86%
same,TGI,[16]; CNS Cancer SNB-19,3.42 µM
same,GI50,"[16]; Homo sapiens, CNS Cancer SNB-19",18.2 µM
same,growth percentage,"[16]; SNB-19 (CNS Cancer), 10 μM, 48 hours",94.02%
same,growth percentage,"[17]; COLO 205 (Colon Cancer), 10 μM, 48 hours",45.69%
same,GI50,"[17]; Homo sapiens, Colon Cancer COLO 205",2.41 µM
same,growth percentage,[18],94.33%
same,growth percentage,"[19]; 786-0 (Renal Cancer), 10 μM, 48 hours",74.13%
same,GI50,"[19]; Homo sapiens, 786-0, Renal Cancer 786-O",26.8 µM
same,CC50,"[19]; Homo sapiens, 786-0, Renal Cancer 786-O, read-out: LC50 (the source's name)",6.01 µM
same,TGI,[19]; Renal Cancer 786-O,3.29 µM
same,GI50,"[20]; Homo sapiens, Melanoma M14",16.5 µM
same,CC50,"[20]; Homo sapiens, Melanoma M14, read-out: LC50 (the source's name)",19.3 µM
same,growth percentage,"[20]; M14 (Melanoma), 10 μM, 48 hours",76.44%
same,TGI,[20]; Melanoma M14,5.48 µM
same,TGI,[21],4.60 µM
same,GI50,[21]; Homo sapiens,17.8 µM
same,LC50 (concentration killing 50% of cells),[21]; Homo sapiens,9.85 µM
same,TGI,[22]; CNS Cancer SF-268,3.27 µM
same,GI50,[22]; [37],17.7 µM
same,LC50,[22]; [37],6.52 µM
same,growth percentage,"[22]; SF-268 (CNS Cancer), 10 μM, 48 hours",65.88%
same,TGI,[23]; Colon Cancer SW-620,3.06 µM
same,GI50,[23]; [38],5.12 µM
same,LC50 (concentration killing 50% of cells),[23]; [38],6.67 µM
same,growth percentage,"[23]; SW-620 (Colon Cancer), 10 μM, 48 hours",43.72%
same,Mean (mean growth percentage of the tested cancer cell lines),"[24]; 48 hours, all tested cell lines",62.4%
same,cytotoxicity in the first stage (in words),[24]; basis for selection for the five-dose test,potential cytotoxicity
same,growth percentage,"[25]; CAKI-1 (Renal Cancer), 10 μM, 48 hours",64.35%
same,GI50,"[25]; Homo sapiens, Renal Cancer CAKI-1",14.8 µM
same,CC50,"[25]; Homo sapiens, Renal Cancer CAKI-1, read-out: LC50 (the source's name)",6.8 µM
same,TGI,[25]; Renal Cancer CAKI-1,3.26 µM
same,TGI,[26]; CNS Cancer SF-539,3.15 µM
same,GI50,[26]; [39],20.9 µM
same,LC50 (concentration giving 50% net cell kill),[26]; [39],5.86 µM
same,growth percentage,"[26]; SF-539 (CNS Cancer), 10 μM, 48 hours",85.04%
same,growth percentage,"[27]; ACHN (Renal Cancer), 10 μM, 48 hours",55.86%
same,GI50,"[27]; Homo sapiens, Renal Cancer ACHN",6.44 µM
same,CC50,"[27]; Homo sapiens, Renal Cancer ACHN, read-out: LC50 (the source's name)",5.89 µM
same,TGI,[27]; Renal Cancer ACHN,3.04 µM
same,growth percentage,"[28]; A549/ATCC (Non-Small Cell Lung Cancer), 10 μM, 48 hours",51.79%
same,GI50,[28]; [40],15.2 µM
same,LC50 (50% lethal concentration),[28]; [40],6.72 µM
same,TGI,[28]; Non-Small Cell Lung Cancer A549/ATCC,3.51 µM
same,growth percentage,"[29]; CCRF-CEM (Leukemia), 10 μM, 48 hours",42.00%
same,GI50,"[29]; Homo sapiens, Leukemia CCRF-CEM",8.24 µM
same,CC50,"[29]; Homo sapiens, Leukemia CCRF-CEM, read-out: LC50 (the source's name)",7.8 µM
same,TGI,[29]; Leukemia CCRF-CEM,3.50 µM
same,GI50,"[30]; Homo sapiens, Prostate Cancer PC-3",12.5 µM
same,CC50,"[30]; Homo sapiens, Prostate Cancer PC-3, read-out: LC50 (the source's name)",8.98 µM
same,growth percentage,"[30]; PC-3 (Prostate Cancer), 10 μM, 48 hours",41.01%
same,TGI,[30]; Prostate Cancer PC-3,3.82 µM
same,growth percentage,"[31]; DU-145 (Prostate Cancer), 10 μM, 48 hours",65.48%
same,GI50,"[31]; Homo sapiens, Prostate Cancer DU-145",18.8 µM
same,CC50,"[31]; Homo sapiens, Prostate Cancer DU-145, read-out: LC50 (the source's name)",5.43 µM
same,TGI,[31]; Prostate Cancer DU-145,2.94 µM
same,TGI,[32],3.06 µM
same,GI50,"[32]; Homo sapiens, U-251",11.4 µM
same,LC50 (concentration killing 50% of cells),"[32]; Homo sapiens, U-251",5.88 µM
same,GI50,"[33]; Homo sapiens, Melanoma SK-MEL-5",1.15 µM
same,TGI,[33]; Melanoma SK-MEL-5,2.61 µM
same,growth percentage,"[33]; SK-MEL-5 (Melanoma), 10 μM, 48 hours",82.51%
same,GI50,"[34]; Homo sapiens, IGROV-1, Ovarian Cancer IGROV1",11.2 µM
same,CC50,"[34]; Homo sapiens, IGROV-1, Ovarian Cancer IGROV1, read-out: LC50 (the source's name)",7.82 µM
same,growth percentage,"[34]; IGROV1 (Ovarian Cancer), 10 μM, 48 hours",43.43%
same,TGI,[34]; Ovarian Cancer IGROV1,3.62 µM
